Laboratory results from US9340549B2, “Oxazolidinone compounds and derivatives thereof” (priority 2012, dated 2016).

Each compound was assayed against 6×HIS-tankyrase 1 (1091-1325) (Homo sapiens (Human), UniProt O95271) (assay: biochemical). Details: 0.25 nM enzyme, 400 nM NAD, 60 minutes at room temperature; read-out: TNKS1 IP IC50.
Chain of 6×HIS-tankyrase 1 (1091-1325) (O95271 1091-1325): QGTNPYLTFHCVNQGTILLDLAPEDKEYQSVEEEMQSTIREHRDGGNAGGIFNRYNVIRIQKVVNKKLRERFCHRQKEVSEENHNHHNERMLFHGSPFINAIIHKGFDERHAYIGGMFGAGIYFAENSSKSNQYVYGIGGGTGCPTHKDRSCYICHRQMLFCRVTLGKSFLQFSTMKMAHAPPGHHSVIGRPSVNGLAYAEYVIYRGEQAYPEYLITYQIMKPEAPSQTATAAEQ
Assay type: biochemical
With `CC1(C)OC(=O)N([C@H]2CC[C@@H](c3cc4ccncc4[nH]c3=O)CC2)[C@H]1c1ccccc1` [Example 138, (S)-5,5-dimethyl-3-((1s,4r)-4-(2-oxo-1,2-dihydro-1,7-naphthyridin-3-yl)cyclohexyl)-4-phenyloxazolidin-2-one] the IC50 was 1250 nM.

Same assay, conditions: […] enzyme, 400 nM NAD, 60 minutes at room temperature; read-out: TNKS1 IP IC50
With `Cc1nc(C(=O)N[C@H]2CC[C@H](N3C(=O)OC(C)(C)[C@@H]3c3ccccc3)CC2)cs1` [Example 166, N-((1S,4r)-4-((S)-5,5-dimethyl-2-oxo-4-phenyloxazolidin-3-yl)cyclohexyl)-2-methylthiazole-4-carboxamide] the IC50 was > 46300 nM.
`CC1(C)OC(=O)N([C@H]2CC[C@H](n3ncc4cc(C#N)ccc43)CC2)[C@@H]1c1ccccc1` [Example 180, 1-((1R,4r)-4-((R)-5,5-dimethyl-2-oxo-4-phenyloxazolidin-3-yl)cyclohexyl)-1H-indazole-5-carbonitrile] showed an IC50 of 915 nM.
Compound `CC1(C)OC(=O)N([C@H]2CC[C@H](NC(=O)c3cnn4cccnc34)CC2)[C@H]1c1ccccc1` [Example 146, N-((1S,4r)-4-((S)-5,5-dimethyl-2-oxo-4-phenyloxazolidin-3-yl)cyclohexyl)pyrazolo[1,5-a]pyrimidine-3-carboxamide] has an IC50 of 9.18 nM.
Compound `Cn1cncc1C(=O)N[C@H]1CC[C@H](N2C(=O)OC(C)(C)[C@@H]2c2ccccc2)CC1` [Example 151, N-((1S,4r)-4-((S)-5,5-dimethyl-2-oxo-4-phenyloxazolidin-3-yl)cyclohexyl)-1-methyl-1H-imidazole-5-carboxamide] has an IC50 of 16600 nM.
Work on `Cn1cc2cccc(C(=O)N[C@H]3CC[C@H](N4C(=O)OC(C)(C)[C@@H]4c4ccccc4)CC3)c2n1` [Example 145, N-((1S,4r)-4-((S)-5,5-dimethyl-2-oxo-4-phenyloxazolidin-3-yl)cyclohexyl)-2-methyl-2H-indazole-7-carboxamide] yielded an IC50 of 13.7 nM.
With `C[C@H]1OC(=O)N([C@H]2CC[C@H](n3c(=O)[nH]c4cc(C#N)ccc43)CC2)[C@H]1c1ccccc1` [Example 178, 1-((1R,4s)-4-((4S,5R)-5-methyl-2-oxo-4-phenyloxazolidin-3-yl)cyclohexyl)-2-oxo-2,3-dihydro-1H-benzo[d]imidazole-5-carbonitrile] the IC50 was 0.375 nM.
Compound `CC1(C)OC(=O)N([C@H]2CC[C@H](NC(=O)c3ccnc4[nH]ccc34)CC2)[C@H]1c1ccccc1` [Example 152, N-((1S,4r)-4-((S)-5,5-dimethyl-2-oxo-4-phenyloxazolidin-3-yl)cyclohexyl)-1H-pyrrolo[2,3-b]pyridine-4-carboxamide] has an IC50 of 228 nM.
For `CC1(C)OC(=O)N([C@H]2CC[C@H](n3ncc4cc(C#N)ccc43)CC2)[C@H]1c1ccccc1` [Example 181, 1-((1S,4r)-4-((S)-5,5-dimethyl-2-oxo-4-phenyloxazolidin-3-yl)cyclohexyl)-1H-indazole-5-carbonitrile], the IC50 was 714 nM.
`Cn1cc2c(C(=O)N[C@H]3CC[C@H](N4C(=O)OC(C)(C)[C@H]4c4ccccc4)CC3)cccc2n1` [Example 144, N-((1R,4r)-4-((R)-5,5-dimethyl-2-oxo-4-phenyloxazolidin-3-yl)cyclohexyl)-2-methyl-2H-indazole-4-carboxamide] was tested, and the IC50 was 222 nM.
In the case of `CC1(C)OC(=O)N([C@H]2CC[C@H](NC(=O)c3cscn3)CC2)[C@H]1c1ccccc1` [Example 168, N-((1S,4r)-4-((S)-5,5-dimethyl-2-oxo-4-phenyloxazolidin-3-yl)cyclohexyl)thiazole-4-carboxamide], the IC50 is reported as > 46300 nM.
Work on `CC1(C)OC(=O)N(c2ccc(C(=O)Nc3cnccc3O)cc2)[C@H]1c1ccccc1` [Example 21, (S)-4-(5,5-dimethyl-2-oxo-4-phenyloxazolidin-3-yl)-N-(4-hydroxypyridin-3-yl)benzamide] yielded an IC50 of 1340 nM.
`CC1(C)OC(=O)N([C@H]2CC[C@@H](c3cnc4cc[nH]c4c3)CC2)[C@H]1c1ccccc1` [Example 172, (S)-3-((1s,4R)-4-(1H-pyrrolo[3,2-b]pyridin-6-yl)cyclohexyl)-5,5-dimethyl-4-phenyloxazolidin-2-one] was tested, and the IC50 was 1250 nM.
